Patent US12552767B2, “3-heteroaryl pyrrolidine and piperidine orexin receptor agonists” (Merck Sharp & Dohme LLC, priority 2020, dated 2026)

Molecular target: T1, human OX2R (Homo sapiens, UniProt O43614)
T1 construct: expressed in transfected cells; host or cells: CHO (Chinese hamster ovary) cells, grown under G418 selection
T1 sequence (O43614 1-444): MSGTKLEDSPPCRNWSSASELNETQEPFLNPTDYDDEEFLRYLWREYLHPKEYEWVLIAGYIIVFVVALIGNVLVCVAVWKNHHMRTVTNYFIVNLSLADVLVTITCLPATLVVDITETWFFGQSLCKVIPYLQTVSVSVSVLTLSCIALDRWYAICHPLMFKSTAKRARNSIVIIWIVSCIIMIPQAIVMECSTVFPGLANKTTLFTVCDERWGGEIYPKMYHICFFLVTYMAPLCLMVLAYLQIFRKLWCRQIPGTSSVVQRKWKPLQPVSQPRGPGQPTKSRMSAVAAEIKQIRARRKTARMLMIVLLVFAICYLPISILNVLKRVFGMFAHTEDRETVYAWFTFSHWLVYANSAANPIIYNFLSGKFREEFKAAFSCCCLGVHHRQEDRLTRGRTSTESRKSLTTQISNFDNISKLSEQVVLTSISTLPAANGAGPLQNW
Assay: IP-One (IPOne) orexin receptor agonist assay in CHO cells expressing human OX2R
Format: cell-based
Conditions: for EC50: CHO cells expressing human OX2R, IP-One IP-1 detection, 2 hours incubation, four parameter logistic fit, read-out: OX2R Potency, EC50; for % of reference agonist maximal effect: human OX2R, percentage of sample raw value/mean max effect (reference compound at 1 uM with 100% activity)
Excerpt: The utility of the compounds in accordance with the present invention as orexin receptor OX1R and/or OX2R agonists may be readily determined without undue experimentation by methodology well known in the art. Both the OX1R and/or OX2R G-coupled protein receptors (GPCRs) couple through the Gαq signaling pathway, which ultimately promotes calcium mobilization via inositol triphosphate (IP3) production. The half-life of IP-3 is relatively short, being rapidly metabolized to inositol monophosphate (IP-1), which can be readily detected using a commercially available assay kit (IP-One; Cisbio; cat #621PAPEC) coupled with a cell line expressing the target receptor(s) of interest. The utility of the compounds in accordance with the present invention as orexin receptor OX1R and/or OX2R agonists may be determined utilizing this assay.
In a typical experiment, the OX1 and OX2 receptor agonist activity is determined in accordance with the following general experimental method. Chinese hamster ovary (CHO) cells expressing human OX1R and/or the human OX2R were grown in Iscove's modified DMEM containing glutaMAX™, 1% G418, 100 U/mL penicillin, 100 μg/mL streptomycin and 10% heat-inactivated qualified fetal bovine serum (FBS). The OX2R cells were seeded at 10,000 cells/well/50 μL and the OX1R cells were seeded at 20,000 cells/well/50 μL into 384-well white tissue culture plates (Greiner; cat #781080). All cell/media reagents were from GIBCO-Invitrogen Corp. The seeded cell plate(s) were incubated at 37° C. with 5% CO2 and 85% humidity for 20-24 hours. On the day of the assay, assay-ready compound plates were prepared using an acoustic liquid handler (ECHO; Labcyte), which dispensed sufficient volume of test compound stock (10 mM in DMSO) or 100% DMSO to prepare 10 point, ½-log dilutions in a final volume of 202.5 nL/well in all test wells of a 384-well diamond plate (Labcyte). Following completion of assay-ready plates, importantly, the next three steps were performed with minimal delay: 1) 20 μl of 1× stimulation buffer was added to the compound plate using a Multidrop Combi (small cassette, Thermo Fisher Scientific cat #24073290); 2) culture medium was removed from the cell plate using the Bluewasher plate washer (gentle spin; BlueCatBio); 3) 14 μl of compound/stimulation buffer mixture was added to the cell plate using a Bravo liquid handler (Agilent) prior to incubating cell plates at 37° C. with 5% CO2 and 85% humidity for 1 or 2 hours (OX1R and OX2R, respectively). During this incubation, IP-one detection reagents were prepared (38:1:1 lysis buffer:D2:AB-cryptate reagents). Six μL of mixed detection reagents were added to the cell plate using a Multidrop Combi (small cassette, Thermo Fisher Scientific cat #24073290) and incubated 60 minutes at room temperature in the dark. Fluorescence signal was detected using an Envision plate reader (Perkin Elmer) [LANCE/DELFIA Dual Enh (Em: APC 665; Ex: Cy5 620)].
For each compound, data were fit to a four parameter logistic fit (ActivityBase software) and the EC50 was reported as the inflection point of the resulting curve. Percent effect for each test compound was determined as the percentage of sample raw value/mean max effect, where the mean max effect was derived from the mean raw value of 32 control wells per assay plate (using Orexin A (cat #003-30) at 1 μM for human OX1R and a reference compound at 1 uM with 100% activity previously established by comparison to Orexin A for human OX2R). The intrinsic orexin receptor agonist activity of a compound which may be used in the present invention may be determined by these assays.

Compound: O=C(OCCF)N1CCCC(c2ccn[nH]2)C1CO[C@H]1CC[C@@H](c2c(F)ccc(F)c2F)CC1 (relative stereo) [Example 30, 2-Fluoroethyl 3-(1H-pyrazol-5-yl)-2-((((CIS)-4-(2,3,6-trifluorophenyl)cyclohexyl)oxy)methyl)-piperidine-1-carboxylate]
- EC50: 2920 nM
- % of reference agonist maximal effect: 87.6%

Compound: COC(=O)N1CCC[C@@H](c2n[nH]cc2CO)[C@H]1CO[C@H]1CC[C@@H](c2ccccc2)CC1 (single isomer, unassigned) [Example 54]
- EC50: > 10000 nM
- % of reference agonist maximal effect: 15.7%

Compound: CC[C@H]1C[C@@H]1C(=O)N1CCC[C@H](c2cc[nH]n2)[C@@H]1COC1CCC(c2ccccc2)CC1 (stereo in doubt) [Example 90, 5-((CIS)-1-((TRANS)-2-ethylcyclopropane-1-carbonyl)-2-((((CIS)-4-phenylcyclohexyl)oxy)methyl)piperidin-3-yl)-1H-pyrazol-2-ium 2,2,2-trifluoroacetate]
- EC50: 1140 nM
- % of reference agonist maximal effect: 90.7%

Compound: CCNC(=O)N1CCC[C@H](c2ccnn2C)[C@@H]1CO[C@H]1CC[C@@H](c2ccccc2)CC1 (relative stereo) [Example 22, (CIS)-N-ethyl-3-(1-methyl-1H-pyrazol-5-yl)-2-((((CIS)-4-phenylcyclohexyl)oxy)methyl)piperidine-1-carboxamide]
- EC50: 6000 nM
- % of reference agonist maximal effect: 83.7%

Compound: CCc1c[nH]nc1[C@H]1CCCN(C(=O)OC)[C@H]1CO[C@H]1CC[C@@H](c2ccccc2)CC1 (single isomer, unassigned) [Example 43]
- EC50: 163 nM
- % of reference agonist maximal effect: 100.4%

Compound: COC(=O)N1CCC[C@H](c2n[nH]cc2C(F)F)[C@@H]1CO[C@H]1CC[C@@H](c2ccccc2)CC1 (single isomer, unassigned) [Example 55]
- EC50: 97.5 nM
- % of reference agonist maximal effect: 100.8%

Compound: COC(=O)N1C[C@@H](C)C[C@@H](c2ccn[nH]2)[C@@H]1CO[C@H]1CC[C@@H](c2ccccc2)CC1 (racemic) [Example 40, (+/−) methyl (2R,3R,5S)-5-methyl-2-((((CIS)-4-phenylcyclohexyl)oxy)methyl)-3-(1H-pyrazol-5-yl)piperidine-1-carboxylate]
- EC50: 1630 nM
- % of reference agonist maximal effect: 95.8%

Compound: CCNC(=O)N1CCC[C@H](c2n[nH]cc2C)[C@@H]1CO[C@H]1CC[C@@H](c2cccc(F)c2)CC1 (racemic) [Example 10, (CIS)-N-ethyl-2-((((CIS)-4-(3-fluorophenyl)cyclohexyl)oxy)methyl)-3-(4-methyl-1H-pyrazol-3-yl)piperidine-1-carboxamide]
- EC50: 4.8 nM
- % of reference agonist maximal effect: 100.8%

Compound: CC[C@H](C)COC(=O)N1CCC[C@H](c2cc[nH]n2)[C@@H]1CO[C@H]1CC[C@@H](c2ccccc2)CC1 [Example 107, (S)-2-methylbutyl (CIS)-2-((((CIS)-4-phenylcyclohexyl)oxy)methyl)-3-(1H-pyrazol-3-yl)piperidine-1-carboxylate]
- EC50: 5090 nM
- % of reference agonist maximal effect: 52.4%

Compound: CCNC(=O)N1CCCC(c2nc[nH]n2)C1CO[C@H]1CC[C@@H](C(C)C)CC1 (single isomer, unassigned) [Example 63, N-ethyl-2-((((CIS)-4-isopropylcyclohexyl)oxy)methyl)-3-(1H-1,2,4-triazol-3-yl)piperidine-1-carboxamide]
- EC50: 334 nM
- % of reference agonist maximal effect: 100.2%

Compound: CCNC(=O)N1CCC[C@H](c2ccn[nH]2)[C@@H]1CO[C@H]1CC[C@@H](C(C)C)CC1 (single isomer, unassigned) [Example 4]
- EC50: 276 nM
- % of reference agonist maximal effect: 100.6%

Compound: CC(C)[C@H]1CC[C@@H](OC[C@H]2[C@@H](c3cc[nH]n3)CCCN2C(=O)C2CCC2)CC1 (relative stereo) [Example 79, cyclobutyl((CIS)-2-((((CIS)-4-isopropylcyclohexyl)oxy)methyl)-3-(1H-pyrazol-3-yl)piperidin-1-yl)methanone]
- EC50: 5310 nM
- % of reference agonist maximal effect: 83.2%

Compound: CC[C@H](C)OC(=O)N1CCC[C@H](c2cc[nH]n2)[C@@H]1CO[C@H]1CC[C@@H](c2ccccc2)CC1 [Example 116, (S)-sec-butyl (CIS)-2-((((CIS)-4-phenylcyclohexyl)oxy)methyl)-3-(1H-pyrazol-3-yl)piperidine-1-carboxylate]
- EC50: 7760 nM
- % of reference agonist maximal effect: 56.1%

Compound: CCNC(=O)N1CCC[C@H](c2ccn[nH]2)[C@@H]1CO[C@H]1CC[C@@H](c2ccccc2)CC1 (single isomer, unassigned) [Example 1, (CIS)-N-ethyl-2-((((CIS)-4-phenylcyclohexyl)oxy)methyl)-3-(1H-pyrazol-5-yl)piperidine-1-carboxamide]
- EC50: 67.3 nM
- % of reference agonist maximal effect: 102.6%

Compound: CCNC(=O)N1CCCC(c2ccn[nH]2)C1CO[C@H]1CC[C@@H](c2c(F)ccc(F)c2F)CC1 (stereo partly drawn) [Example 33]
- EC50: 47.2 nM
- % of reference agonist maximal effect: 100.3%

Compound: COC(=O)N1CCC[C@H](c2n[nH]cc2Cl)[C@@H]1CO[C@H]1CC[C@@H](c2ccccc2)CC1 (single isomer, unassigned) [Example 45]
- EC50: 79.4 nM
- % of reference agonist maximal effect: 100.2%

Compound: CCNC(=O)N1C(C)CCC(c2ccn[nH]2)C1COC1CCC(C(C)C)CC1 (stereo not drawn) [Example 38, N-ethyl-2-(((4-isopropylcyclohexyl)oxy)methyl)-6-methyl-3-(H-pyrazol-5-yl)piperidine-1-carboxamide]
- EC50: 241 nM
- % of reference agonist maximal effect: 95.0%

Compound: CCNC(=O)N1CCC[C@H](c2ccn(C)n2)[C@@H]1CO[C@H]1CC[C@@H](c2ccccc2)CC1 (relative stereo) [Example 27, (CIS)-N-ethyl-3-(1-methyl-1H-pyrazol-3-yl)-2-((((CIS)-4-phenylcyclohexyl)oxy)-methyl)piperidine-1-carboxamide]
- EC50: 3510 nM
- % of reference agonist maximal effect: 82.5%

Compound: COC(=O)N1C[C@@H](C)C[C@H](c2ccn[nH]2)[C@@H]1CO[C@H]1CC[C@@H](c2ccccc2)CC1 (racemic) [Example 39, (+/−) methyl (2R,3S,5S)-5-methyl-2-((((CIS)-4-phenylcyclohexyl)oxy)methyl)-3-(1H-pyrazol-5-yl)piperidine-1-carboxylate]
- EC50: 1980 nM
- % of reference agonist maximal effect: 94.8%

Compound: CCNC(=O)N1CCCC(c2[nH]ncc2C)C1COC1CCC(C(C)C)CC1 (single isomer, unassigned) [Example 58, N-ethyl-2-(((4-isopropylcyclohexyl)oxy)methyl)-3-(4-methyl-1H-pyrazol-5-yl)piperidine-1-carboxamide]
- EC50: > 10000 nM
- % of reference agonist maximal effect: 0%

Compound: COC(=O)N1CCC[C@@H](c2n[nH]cc2C(C)C)[C@H]1CO[C@H]1CC[C@@H](c2ccccc2)CC1 (single isomer, unassigned) [Example 50]
- EC50: > 10000 nM
- % of reference agonist maximal effect: 5.2%
